Our source for the Ki and IC50 values is patent US11298363B2, “Triazolobenzazepines as vasopressin V1a receptor antagonists” (RICHTER GEDEON NYRT., priority 2017, dated 2022).

Experiment [1] concerns the target T1, human vasopressin V1a receptor (Homo sapiens, UniProt P37288). Nature of the experiment: Human vasopressin V1a receptor binding assay. The note with it: 1321N1 cell membranes, [3H]vasopressin; read-out: Ki (nM) on hV1a cell line. The gist of the method: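 Ki values come from IC50 via Cheng-Prusoff (KD from prior Scatchard), averaged over at least two independent runs. Human V1a membranes were incubated with radioligand 60 minutes at 27° C., bound ligand collected by filtration; (Arg^8)-vasopressin at 1.2×10^−6 M defined non-specific binding.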

Experiment [2] deals with T1, human vasopressin V1a receptor. Nature of the experiment: Functional assay on human vasopressin V1a receptor expressing cell line (intracellular Ca2+ fluorescence). The format is cell-based. The note with it: 1321N1 cells, (Arg8)-vasopressin at EC80; read-out: IC50 (nM) on hV1a cell line.
Experiment [3] deals with human vasopressin V2 receptor (Homo sapiens, UniProt P30518). Description: Human vasopressin V2 receptor binding assay on 1321N1 cell line. The note with it: 1321N1 cell line; read-out: Ki on hV2 1321N1 cell line. As for the experimental part:
Human Vasopressin V2 Receptor Binding Assay Cells and Radioligand
To determine the final affinity value, the results of at least two independent experiments were taken into account.
Non-specific binding values were determined in the presence of an unlabeled 1.2×10^−6 M (Arg^8)-vasopressin. Samples were incubated in a total volume of 0.55 ml for 90 minutes at 27° C. Membrane-bound and free ligands were separated by filtration through a 0.5% polyethyleneimine-impregnated UniFilter® GF/B™. After drying the filter plates, 40 μl Microscint-20 (Packard) scintillation cocktail was added to the samples. Finally, radioactivity was measured using MicroBeta^2 Microplate Counter (Perkin Elmer).
The radioligand displacement ability of a substance is determined in at least two independent experiments. Specific radioligand binding can be defined as the difference between total and non-specific binding in the presence of a saturation amount of the unlabeled ligand or different concentrations of the substance to be tested. The results are given as a percentage of inhibition of the specific binding achieved in the presence of the substance to be tested.
During fitting, the asymptotes are not fixed. The Ki values (inhibition constant) are given with Cheng-Prusoff equation Ki=IC50/[1+(L/KD)] wherein [L] is the radioligand concentration used in the experiment and [KD] is the affinity of the radioactively labelled ligand for the given receptor. The KD is determined beforehand using the Scatchard curve.

Sequence of human vasopressin V2 receptor (P30518 whole entry): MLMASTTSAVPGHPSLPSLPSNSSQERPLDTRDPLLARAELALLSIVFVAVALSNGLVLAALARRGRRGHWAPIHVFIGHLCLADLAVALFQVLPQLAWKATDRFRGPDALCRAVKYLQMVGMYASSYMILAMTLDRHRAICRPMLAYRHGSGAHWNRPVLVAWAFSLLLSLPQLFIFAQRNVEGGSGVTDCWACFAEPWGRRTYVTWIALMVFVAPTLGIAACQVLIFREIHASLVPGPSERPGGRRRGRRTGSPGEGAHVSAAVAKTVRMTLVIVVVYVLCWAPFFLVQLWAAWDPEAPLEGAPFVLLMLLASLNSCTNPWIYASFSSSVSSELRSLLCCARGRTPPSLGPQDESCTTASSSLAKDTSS
T1 sequence (P37288 whole entry): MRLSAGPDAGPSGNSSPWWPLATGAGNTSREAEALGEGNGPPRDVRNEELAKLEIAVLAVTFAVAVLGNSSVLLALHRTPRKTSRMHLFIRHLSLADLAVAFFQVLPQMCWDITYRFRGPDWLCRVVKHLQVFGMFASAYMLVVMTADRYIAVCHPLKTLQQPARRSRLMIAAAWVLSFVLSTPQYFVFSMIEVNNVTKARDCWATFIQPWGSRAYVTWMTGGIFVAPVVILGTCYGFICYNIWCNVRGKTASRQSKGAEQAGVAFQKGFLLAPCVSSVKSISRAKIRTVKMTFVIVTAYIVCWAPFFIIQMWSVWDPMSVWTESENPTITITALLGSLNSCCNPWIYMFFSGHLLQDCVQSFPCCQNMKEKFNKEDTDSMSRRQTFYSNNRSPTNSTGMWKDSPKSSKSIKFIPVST

With `N[C@@H]1Cc2cc(Cl)ccc2-n2c(nnc2[C@H]2CC[C@H](Oc3ccccn3)CC2)C1` [Example 8, (5R)-8-chloro-1-[trans-4-(pyridin-2-yloxy)cyclohexyl]-5,6-dihydro-4H-[1,2,4]triazolo[4,3-a][1]benzazepine-5-amine], the Ki (commonly a measure of affinity in units of concentration, obtained from inhibition or displacement) in experiment [1] worked out at 1.3 nM; in experiment [3], 3050 nM. The IC50 (usually the concentration that inhibits the measured activity by half) in experiment [2] stood at 6.8 nM.
On to `CC(=O)NC1Cc2cc(Cl)ccc2-n2c(nnc2[C@H]2CC[C@H](Oc3ccccn3)CC2)C1` (stereo partly drawn) [Example 9, N-{8-chloro-1-[trans-4-(pyridin-2-yloxy)cyclohexyl]-5,6-dihydro-4H-[1,2,4]triazolo[4,3-a][1]benzazepin-5-yl}acetamide], for which the Ki in experiment [1] was 0.8 nM; in experiment [3], 1190 nM. In experiment [2], the IC50 was found to be 3 nM.
As for `O=C1Cc2cc(Cl)ccc2-n2c(nnc2[C@H]2CC[C@H](Oc3ccccn3)CC2)C1` [Example 54, 8-chloro-1-[trans-4-(pyrin-2-yloxy)cyclohexyl]-4H-[1,2,4]triazolo[4,3-a][1]benzazepin-5(6H)-one], the Ki in experiment [1] stood at 0.6 nM; in experiment [3], 662 nM. For the same compound, the concentration for half-maximal inhibition (IC50) in experiment [2] came to 1.2 nM.
Taken in the same sequence, the figures for `OC1Cc2cc(Cl)ccc2-n2c(nnc2[C@H]2CC[C@H](Oc3ccccn3)CC2)C1` (stereo partly drawn) [Example 55, 8-chloro-1-[trans-4-(pyridin-2-yloxy)cyclohexyl]-5,6-dihydro-4H-[1,2,4]triazolo[4,3-a][1]benzazepin-5-ol] were 0.3 nM, 469 nM and 1.1 nM.
On to `O[C@@H]1Cc2cc(Cl)ccc2-n2c(nnc2[C@H]2CC[C@H](Oc3ccccn3)CC2)C1` [Example 57, (5R)-8-chloro-1-[trans-4-(pyridin-2-yloxy)cyclohexyl]-5,6-dihydro-4H-[1,2,4]triazolo[4,3-a][1]benzazepin-5-ol], for which the Ki was determined as 0.3 nM in experiment [1] and 446 nM in experiment [3]. Besides, the concentration for half-maximal inhibition (IC50) in experiment [2] turned out to be 1.8 nM.
Taken in the same sequence, the figures for `Brc1ccc2c(c1)CC1(Cc3nnc([C@H]4CC[C@H](Oc5ccccn5)CC4)n3-2)OCCO1` [Example 62, 8′-bromo-1′-[trans-4-(pyridin-2-yloxy)cyclohexyl]-4′H,6′H-spiro[1,3-dioxolane-2,5′ [1,2,4]triazolo[4,3-a][1]benzazepine]] were 0.2 nM, 53 nM and 1.1 nM.
For the compound `c1ccc(O[C@H]2CC[C@H](c3nnc4n3-c3ccccc3CC3(C4)OCCO3)CC2)nc1` [Example 63, 1′-[trans-4-(pyridin-2-yloxy)cyclohexyl]-4′H,6′H-spiro[1,3-dioxolane-2,5′-[1,2,4]triazolo[4,3-a][1]benzazepine]], the inhibitory constant (Ki) in experiment [1] is 0.3 nM; in experiment [3], 575 nM. Besides, the IC50 in experiment [2] is 1.4 nM.
